Experiments:
ALOMY [1] = assay: greenhouse post-emergence herbicidal test; format: in vivo, Alopecurus myosuroides; conditions: for herbicidal activity: ALOMY, scale 0 to 100; for control of ALOMY: 500 g/ha
From the text: (§1) The seeds of the test plants were sown separately for each species. For the post-emergence treatment, the test plants were first grown to a height of 3 to 15 cm, depending on the plant habit, and only then treated with the active ingredients which had been suspended or emulsified in water. For this purpose, the test plants were either sown directly and grown in the same containers, or they were first grown separately as seedlings and transplanted into the test containers a few days prior to treatment. Depending on the species, the plants were kept at 10-25° C. or 20-35° C., respectively. The test period extended over 2 to 4 weeks. During this time, the plants were tended, and their response to the individual treatments was evaluated. Evaluation was carried out using a scale from 0 to 100. 100 means no emergence of the plants, or complete destruction of at least the aerial moieties, and 0 means no damage, or normal course of growth. A good herbicidal activity is given at values of at least 70 and a very good herbicidal activity is given at values of at least 85. The plants used in the greenhouse experiments were of the following species: [table]

ECHCG [2] = assay: greenhouse post-emergence herbicidal test; format: in vivo, Echinocloa crus-galli; conditions: scale 0 to 100
From the text: as §1

SETVI = assay: greenhouse post-emergence herbicidal test; format: in vivo, Setaria viridis; conditions: 1000 g/ha, scale 0 to 100
From the text: as §1

APESV = assay: greenhouse pre-emergence herbicidal test; format: in vivo, Apera spica-venti; conditions: for herbicidal activity: APESV, scale 0 to 100; for control of APESV: 125 g/ha
From the text: (§2) The seeds of the test plants were sown separately for each species. For the pre-emergence treatment, the active ingredients, which had been suspended or emulsified in water, were applied directly after sowing by means of finely distributing nozzles. The containers were irrigated gently to promote germination and growth and subsequently covered with transparent plastic hoods until the plants had rooted. This cover caused uniform germination of the test plants, unless this had been impaired by the active ingredients. Depending on the species, the plants were kept at 10-25° C. or 20-35° C., respectively. The test period extended over 2 to 4 weeks. During this time, the plants were tended, and their response to the individual treatments was evaluated. Evaluation was carried out using a scale from 0 to 100. 100 means no emergence of the plants, or complete destruction of at least the aerial moieties, and 0 means no damage, or normal course of growth. A good herbicidal activity is given at values of at least 70 and a very good herbicidal activity is given at values of at least 85. The plants used in the greenhouse experiments were of the following species: [table]

ECHCG [3] = assay: greenhouse pre-emergence herbicidal test; format: in vivo, Echinocloa crus-galli; conditions: scale 0 to 100
From the text: as §2

AGSST [4] = assay: greenhouse post-emergence herbicidal test; format: in vivo, Agrostis stolonifera; conditions: 2000 g/ha, scale 0 to 100
From the text: as §1

POAAN [5] = assay: greenhouse post-emergence herbicidal test; format: in vivo, Poa annua; conditions: 2000 g/ha, scale 0 to 100
From the text: as §1

AGSST [6] = assay: greenhouse pre-emergence herbicidal test; format: in vivo, Agrostis stolonifera; conditions: 2000 g/ha, scale 0 to 100
From the text: as §2

POAAN [7] = assay: greenhouse pre-emergence herbicidal test; format: in vivo, Poa annua; conditions: 2000 g/ha, scale 0 to 100
From the text: as §2

AVEFA = assay: greenhouse post-emergence herbicidal test; format: in vivo, Avena fatua; conditions: for herbicidal activity: AVEFA, scale 0 to 100; for control of AVEFA: 500 g/ha
From the text: as §1

MATIN = assay: greenhouse post-emergence herbicidal test; format: in vivo, Matricaria inodora; conditions: 2000 g/ha, scale 0 to 100
From the text: as §1

ALOMY [8] = assay: greenhouse pre-emergence herbicidal test; format: in vivo, Alopecurus myosuroides; conditions: 125 g/ha
From the text: as §2

AMARE = assay: greenhouse post-emergence herbicidal test; format: in vivo, Amaranthus retroflexus; conditions: for control of AMARE: 500 g/ha; for herbicidal activity: 1000 g/ha, AMARE, scale 0 to 100
From the text: as §1

SMILES | herbicidal activity (ALOMY [1]; 1000 g/ha) | herbicidal activity (ECHCG [2]; 1000 g/ha) | herbicidal activity (APESV; 1000 g/ha) | herbicidal activity (ECHCG [3]; 1000 g/ha) | herbicidal activity (ALOMY [1]; 2000 g/ha) | herbicidal activity (APESV; 2000 g/ha) | control of AVEFA (AVEFA) [%] | other results
O=C(O)c1nc(C2CC2)ncc1-c1cc(C(F)(F)F)ccc1Br [Ex.6] | very good (a very good herbicidal activity is given at values of at least 85) | very good (a very good herbicidal activity is given at values of at least 85) | very good (a very good herbicidal activity is given at values of at least 85) | very good (a very good herbicidal activity is given at values of at least 85) |  |  |  | herbicidal activity (SETVI): very good (a very good herbicidal activity is given at values of at least 85)
COC(=O)c1nc(C2CC2)ncc1-c1cc(C(F)(F)F)ccc1Br [Ex.5] |  |  |  |  |  |  |  | herbicidal activity (AGSST [4]): very good (a very good herbicidal activity is given at values of at least 85); herbicidal activity (POAAN [5]): very good (a very good herbicidal activity is given at values of at least 85); herbicidal activity (AGSST [6]): good (A good herbicidal activity is given at values of at least 70); herbicidal activity (POAAN [7]): very good (a very good herbicidal activity is given at values of at least 85)
COC(=O)c1nc(C2CC2)ncc1-c1cc(OC(F)(F)F)ccc1F [Ex.11] |  |  |  |  | very good (a very good herbicidal activity is given at values of at least 85) | very good (a very good herbicidal activity is given at values of at least 85) |  | herbicidal activity (AVEFA; 2000 g/ha): very good (a very good herbicidal activity is given at values of at least 85); herbicidal activity (ECHCG [3]; 2000 g/ha): very good (a very good herbicidal activity is given at values of at least 85)
Cc1ccc(C(F)(F)F)cc1-c1cnc(C2CC2)nc1C(=O)O [Ex.14] |  |  |  |  | very good (a very good herbicidal activity is given at values of at least 85) | very good (a very good herbicidal activity is given at values of at least 85) |  | herbicidal activity (AVEFA; 2000 g/ha): very good (a very good herbicidal activity is given at values of at least 85); herbicidal activity (ECHCG [2]; 2000 g/ha): very good (a very good herbicidal activity is given at values of at least 85); herbicidal activity (ECHCG [3]; 2000 g/ha): very good (a very good herbicidal activity is given at values of at least 85)
O=C(O)c1nc(C2CC2)ncc1-c1cc(OC(F)(F)F)ccc1F [Ex.12] |  |  |  |  | very good (a very good herbicidal activity is given at values of at least 85) | very good (a very good herbicidal activity is given at values of at least 85) |  | herbicidal activity (AVEFA; 2000 g/ha): good (A good herbicidal activity is given at values of at least 70)
O=C(O)c1nc(C2CC2)ncc1-c1cc(C(F)(F)F)cc(Br)c1Br [Ex.9] |  |  |  |  |  | good (A good herbicidal activity is given at values of at least 70) |  | herbicidal activity (POAAN [5]): very good (a very good herbicidal activity is given at values of at least 85); herbicidal activity (MATIN): very good (a very good herbicidal activity is given at values of at least 85); herbicidal activity (POAAN [7]): very good (a very good herbicidal activity is given at values of at least 85)
COC(=O)c1nc(C2CC2)ncc1-c1cc(C(F)(F)F)ccc1Cl [Ex.3, Methyl 5-[2-chloro-5-(trifluoromethyl)phenyl]-2-cyclopropyl-pyrimidine-4-carboxylate] | very good (a very good herbicidal activity is given at values of at least 85) | very good (a very good herbicidal activity is given at values of at least 85) | very good (a very good herbicidal activity is given at values of at least 85) | very good (a very good herbicidal activity is given at values of at least 85) |  |  | 85 | herbicidal activity (AVEFA; 1000 g/ha): very good (a very good herbicidal activity is given at values of at least 85); control of APESV (APESV): 90%; control of ALOMY (ALOMY [8]): 85%
COC(=O)c1nc(C2CC2)ncc1-c1cc(C(F)(F)F)ccc1C [Ex.13] |  |  |  |  | very good (a very good herbicidal activity is given at values of at least 85) | very good (a very good herbicidal activity is given at values of at least 85) |  | herbicidal activity (ECHCG [3]; 2000 g/ha): very good (a very good herbicidal activity is given at values of at least 85)
O=C(O)c1nc(C2CC2)ncc1-c1cc(C(F)(F)F)ccc1Cl [Ex.4, 5-[2-chloro-5-(trifluoromethyl)phenyl]-2-cyclopropyl-pyrimidine-4-carboxylic acid] | very good (a very good herbicidal activity is given at values of at least 85) | very good (a very good herbicidal activity is given at values of at least 85) | very good (a very good herbicidal activity is given at values of at least 85) | very good (a very good herbicidal activity is given at values of at least 85) |  |  | 90 | control of ALOMY (ALOMY [1]): 90%; control of AMARE (AMARE): 80%; herbicidal activity (AMARE): very good (a very good herbicidal activity is given at values of at least 85); control of APESV (APESV): 100%; control of ALOMY (ALOMY [8]): 90%
COC(=O)c1nc(C2CC2)ncc1-c1cc(C(F)F)ccc1Cl [Ex.7] | very good (a very good herbicidal activity is given at values of at least 85) | very good (a very good herbicidal activity is given at values of at least 85) | very good (a very good herbicidal activity is given at values of at least 85) | very good (a very good herbicidal activity is given at values of at least 85) |  |  | 90 | herbicidal activity (AVEFA; 1000 g/ha): very good (a very good herbicidal activity is given at values of at least 85)
O=C(O)c1nc(C2CC2)ncc1-c1cc(C(F)F)ccc1Cl [Ex.8] | very good (a very good herbicidal activity is given at values of at least 85) |  | very good (a very good herbicidal activity is given at values of at least 85) | very good (a very good herbicidal activity is given at values of at least 85) |  |  | 90 | control of ALOMY (ALOMY [1]): 90%; control of AMARE (AMARE): 100%; herbicidal activity (AMARE): very good (a very good herbicidal activity is given at values of at least 85); herbicidal activity (SETVI): very good (a very good herbicidal activity is given at values of at least 85)

— patent US20200146289A1, “Herbicidal pyrimidine compounds” (BASF SE, priority 2017, published 2020)
